Measured values published in ChEMBL document CHEMBL2157975 (Bioorg Med Chem Lett, 2012).

Tests used:
[1] = target: T1, Apelin receptor (Homo sapiens, UniProt P35414); assay: Antagonist activity at APJ receptor expressed in CHOK1 cells assessed as inhibition of apelin13-induced beta-arrestin recruitment after 90 mins by luminescence assay; format: functional, cell-based, CHO-K1
T1 sequence (P35414 whole entry): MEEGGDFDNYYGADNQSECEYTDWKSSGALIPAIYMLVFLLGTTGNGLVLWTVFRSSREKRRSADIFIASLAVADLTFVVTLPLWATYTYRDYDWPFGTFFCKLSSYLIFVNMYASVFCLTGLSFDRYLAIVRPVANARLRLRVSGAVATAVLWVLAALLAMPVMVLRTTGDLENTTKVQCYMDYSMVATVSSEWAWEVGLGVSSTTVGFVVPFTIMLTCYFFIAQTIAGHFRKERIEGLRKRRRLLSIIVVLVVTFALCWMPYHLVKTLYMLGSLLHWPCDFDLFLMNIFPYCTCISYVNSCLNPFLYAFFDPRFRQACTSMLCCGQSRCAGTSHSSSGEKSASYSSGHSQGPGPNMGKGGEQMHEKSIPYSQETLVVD

[2] = target: T2, Type-1 angiotensin II receptor (Homo sapiens, UniProt P30556); assay: Inhibition of AT1 receptor
T2 sequence (P30556 whole entry): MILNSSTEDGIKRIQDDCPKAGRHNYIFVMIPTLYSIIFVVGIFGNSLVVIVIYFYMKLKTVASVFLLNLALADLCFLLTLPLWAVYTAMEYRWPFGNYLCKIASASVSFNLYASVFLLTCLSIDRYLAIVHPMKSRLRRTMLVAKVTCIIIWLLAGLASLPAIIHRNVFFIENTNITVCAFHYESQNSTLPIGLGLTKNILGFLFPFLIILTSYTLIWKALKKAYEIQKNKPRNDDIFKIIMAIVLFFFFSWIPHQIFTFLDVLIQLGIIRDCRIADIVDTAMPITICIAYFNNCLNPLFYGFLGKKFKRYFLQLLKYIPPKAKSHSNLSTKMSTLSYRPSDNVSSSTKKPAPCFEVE

[3] = Selectivity ratio of IC50 for AT1 receptor to IC50 for APJ receptor (unknown receptor)
[4] = Drug degradation in aqueous acetonitrile solution assessed as ester bond hydrolysis; format: physicochemical; conditions: buffer

SMILES	IC50 [1] [µM]	IC50 [2] [µM]	Ratio IC50 [3]	Drug degradation [4]
COc1ccc(SCc2cc(=O)c(OC(=O)c3ccc(Cl)c([N+](=O)[O-])c3)co2)cc1	8.27	> 79	> 9	
Cc1ccnc(SCc2cc(=O)c(OC(=O)c3cc(Cl)ccc3[N+](=O)[O-])co2)n1		> 79		
Cc1ccnc(SCc2cc(=O)c(OC(=O)c3cccc(Cl)c3)co2)n1	> 79	> 79		
O=C(Oc1coc(CSc2ccccc2)cc1=O)c1ccc(Cl)c([N+](=O)[O-])c1	9.61	> 79	> 8	
Cc1ccnc(SCc2cc(=O)c(OC(=O)c3ccccc3C)co2)n1	> 79	> 79		
O=C(Oc1coc(CSc2ncccn2)cc1=O)c1ccc(-c2ccccc2)cc1	> 79	> 79		
O=C(Oc1coc(CSc2ncccn2)cc1=O)c1ccc(F)cc1	> 79	> 79		
Cc1ccnc(SCc2cc(=O)c(OC(=O)c3ccc(Cl)c([N+](=O)[O-])c3)co2)n1				Active
CC(C)(C)c1ccc(C(=O)Oc2coc(CSc3ncccn3)cc2=O)cc1	> 79	> 79		
Cc1cc(C)nc(SCc2cc(=O)c(O)co2)n1	> 79	> 79		
O=C(Oc1coc(CSc2ncccn2)cc1=O)c1ccc(Cl)cc1		> 79		
CC(C)Oc1ccc(C(=O)Oc2coc(CSc3ncccn3)cc2=O)cc1	> 79	> 79		
Cc1ccnc(SCc2cc(=O)c(OC(=O)c3ccc(C)c([N+](=O)[O-])c3)co2)n1		> 79	> 17	
Cc1ccnc(SCc2cc(=O)c(OC(=O)c3cccc(C#N)c3)co2)n1	> 79	> 79		
Cc1ccc(C(=O)Oc2coc(CSc3ncccn3)cc2=O)cc1C	> 79	> 79		
Cc1ccnc(SCc2cc(=O)c(OC(=O)c3ccc(C(F)(F)F)cc3)co2)n1		> 79		
Cc1ccnc(SCc2cc(=O)c(OC(=O)c3cc([N+](=O)[O-])ccc3Cl)co2)n1		> 79		
Cc1ccc(C(=O)Oc2coc(CSc3ncccn3)cc2=O)cc1	> 79	> 79		
COc1cccc(C(=O)Oc2coc(CSc3nccc(C)n3)cc2=O)c1	> 79	> 79		
Cc1ccnc(SCc2cc(=O)c(OC(=O)c3ccsc3)co2)n1	> 79	> 79		
CC(=O)Oc1coc(CSc2nccc(C)n2)cc1=O	> 79	> 79		
Cc1ccnc(SCc2cc(=O)c(OC(=O)c3ccc([N+](=O)[O-])o3)co2)n1	> 79	> 79		
Cc1ccnc(SCc2cc(=O)c(OC(=O)c3ccc(F)cc3)co2)n1	> 79	> 79		
Cc1ccc(SCc2cc(=O)c(OC(=O)c3ccc(Cl)c([N+](=O)[O-])c3)co2)cc1	12.8	> 79	> 6	

SMILES	IC50 [1] [µM]	IC50 [2] [µM]	Ratio IC50 [3]	Drug degradation [4]
CCN(CC)S(=O)(=O)c1ccc(C(=O)Oc2coc(CSc3ncccn3)cc2=O)cc1	> 79	> 79		
Cc1ccc(C(=O)Oc2coc(CSc3ncccn3)cc2=O)cc1[N+](=O)[O-]		> 79	> 11	
Cc1cc(C)nc(SCc2cc(=O)c(OS(=O)(=O)c3ccc([N+](=O)[O-])cc3)co2)n1	> 79	> 79		
Cc1ccnc(SCc2cc(=O)c(OC(=O)c3ccc([N+](=O)[O-])cc3)co2)n1		> 79	> 23	
Cc1cccc(C(=O)Oc2coc(CSc3nccc(C)n3)cc2=O)c1	> 79	> 79		
Cc1c(C(=O)Oc2coc(CSc3ncccn3)cc2=O)cccc1[N+](=O)[O-]		> 79		
Cc1ccnc(SCc2cc(=O)c(OC(=O)c3ccc(C#N)cc3)co2)n1		> 79	> 7	
Cc1ccnc(SCc2cc(=O)c(OC(=O)c3cnco3)co2)n1	> 79	> 79		
Cc1ccnc(SCc2cc(=O)c(OC(=O)c3ccc(S(=O)(=O)N4CCCC4)cc3)co2)n1		> 79		
O=C(Oc1coc(CSc2ncccn2)cc1=O)c1cccc([N+](=O)[O-])c1		> 79		
N#Cc1ccc(C(=O)Oc2coc(CSc3ncccn3)cc2=O)cc1	6.59	> 79	> 12	
Cc1ccnc(SCc2cc(=O)c(OC(=O)C(C)C)co2)n1	> 79	> 79		
O=C(Oc1coc(CSc2ncccn2)cc1=O)c1ccc(S(=O)(=O)N2CCCC2)cc1	> 79	> 79		
O=C(Oc1coc(CSc2ncccn2)cc1=O)c1ccc(S(=O)(=O)N2CCOCC2)cc1	> 79	> 79		
Cc1ccnc(SCc2cc(=O)c(O)co2)n1	> 79	> 79		
CCCCOc1ccc(C(=O)Oc2coc(CSc3ncccn3)cc2=O)cc1	> 79	> 79		
O=C(Oc1coc(CSc2ncccn2)cc1=O)c1ccc(C(F)(F)F)cc1		> 79		
Cc1ccnc(SCc2cc(=O)c(OCc3ccccc3)co2)n1	> 79	> 79		
Cc1ccnc(S(=O)(=O)Cc2cc(=O)c(OC(=O)c3ccc(Cl)c([N+](=O)[O-])c3)co2)n1	3.21	> 79	> 25	
O=c1cc(CSc2ncccn2)occ1O	> 79	> 79		
Cc1ccnc(SCc2cc(=O)c(OC(=O)c3cccc([N+](=O)[O-])c3)co2)n1		> 79		
Cc1ccnc(SCc2cc(=O)c(OCc3ccc(Cl)c([N+](=O)[O-])c3)co2)n1	> 79	> 79		
Cc1ccnc(SCc2cc(=O)c(OC(=O)c3ccc(OC(F)(F)F)cc3)co2)n1	> 79	> 79		
Cc1ccnc(SCc2cc(=O)c(OC(=O)c3ccc(Cl)cc3)co2)n1	> 79	> 79		

SMILES	IC50 [1] [µM]	IC50 [2] [µM]	Ratio IC50 [3]	Drug degradation [4]
Cc1ccnc(SCc2cc(=O)c(NC(=O)c3ccc([N+](=O)[O-])cc3)co2)n1	> 79	> 79		
O=c1cc(CSc2ccc(F)cc2)occ1O	> 79	> 79		
COc1cc(C(=O)Oc2coc(CSc3ncccn3)cc2=O)c([N+](=O)[O-])cc1OC	> 79	> 79		
O=c1cc(CSc2ccccc2)occ1O	> 79	> 79		
Cc1cc(C)nc(SCc2cc(=O)c(OS(=O)(=O)c3ccccc3)co2)n1	> 79	> 79		
CCOc1ccc(C(=O)Oc2coc(CSc3ncccn3)cc2=O)cc1	> 79	> 79		
Cc1ccc(C(=O)Oc2coc(CSc3nccc(C)n3)cc2=O)cc1	> 79	> 79		
COc1ccc(C(=O)Oc2coc(CSc3nccc(C)n3)cc2=O)cc1	> 79	> 79		
O=C(Oc1coc(CSc2ccc(Cl)cc2)cc1=O)c1ccc(Cl)c([N+](=O)[O-])c1	4.53	> 79	> 17	
O=C(Oc1coc(CSc2ncccn2)cc1=O)c1ccc(Br)cc1		> 79		
O=C(Oc1coc(CSc2ncccn2)cc1=O)c1ccccc1	> 79	> 79		
Cc1ccnc(SCc2cc(=O)c(OC(=O)C(C)(C)C)co2)n1	> 79	> 79		
Cc1ccnc(SCc2cc(=O)c(OC(=O)c3ccccc3)co2)n1	> 79	> 79		
COc1ccc(C(=O)Oc2coc(CSc3ncccn3)cc2=O)cc1	> 79	> 79		
O=C(Oc1coc(CSc2ccc(OC(F)(F)F)cc2)cc1=O)c1ccc(Cl)c([N+](=O)[O-])c1	24	> 79	> 3	
Cc1ccnc(SCc2cc(=O)c(OC(=O)c3ccccc3Cl)co2)n1	> 59	> 79		
O=C(Oc1coc(CSc2ncccn2)cc1=O)c1ccc(S(=O)(=O)N2CCCCC2)cc1	> 79	> 79		
CN(C)S(=O)(=O)c1ccc(C(=O)Oc2coc(CSc3ncccn3)cc2=O)cc1	> 79	> 79		
Cc1ccnc(SCc2cc(=O)c(OC(=O)c3ccco3)co2)n1	> 79	> 79		
Cc1ccnc(SCc2cc(=O)c(NC(=O)c3ccccc3)co2)n1	> 79	> 79		
O=C(Oc1coc(CSc2ncccn2)cc1=O)c1cc(Cl)ccc1[N+](=O)[O-]	> 79	> 79		
O=C(Oc1coc(CSc2ncccn2)cc1=O)c1ccc(Cl)c([N+](=O)[O-])c1		> 79	> 13	
